“Also recorded” adds a separate entry of the source.
What was measured:
cKit mice [1] = assay: Lineage analysis of engrafted human CD45-expressing cells in mouse bone marrow; type: in vivo
Description: (§1) Presence of human hematopoietic cells was measured by flow cytometry in mouse blood or bone marrow samples. Cells were gated on singlet, live cells. Mouse and human CD45-expressing hematopoietic cells were distinguished by antibodies targeting mouse or human CD45. Engraftment was measured as percent chimerism which was defined as the quantity of human CD45 positive cells divided by the total number of CD45 positive cells (e.g., human and mouse CD45 expressing cells combined). The lineage of human CD45 positive cells was determined using markers for CD19 (e.g., B cells), CD3 (e.g., T cells), CD33 (e.g., myeloid cells), and CD34 (hematopoietic stem/progenitor cells (HSPCs)).
Shown in FIGS. 18A-18B is lineage analysis of engrafted CD45-expressing human cells in mouse bone marrow samples collected at 16 weeks post administration of LT-HSPCs. The lineage of CD45-expressing human leukocytes was evaluated for unedited LT-HSPCs administered at a dose of 0.01×10^6, 0.05×10^6, 0.1×10^6, or 0.25×10^6 cells (FIG. 18A). The lineage of CD45-expressing human leukocytes was also evaluated for LT-HSPCs edited with AAV+RNP either in the presence or absence of i53 (FIG. 18B).
Shown in FIG. 25 is lineage analysis of engrafted CD45-expressing human cells in mouse bone marrow samples collected at 16 weeks post administration of LT-HSPCs. […]

[2] = test system: HBB locus in CD34-expressing LT-HSPCs; assay: HDR insertion of AAV GFP donor at HBB locus (GFP fluorescence); type: cell-based, human; settings: for HDR efficiency: 0.75 g mRNA encoding i53, 5 μM Nu7441, DM control mRNA, FIG. 6C
Description: Frozen CD34-expressing LT-HSPCs derived from plerixafor (i.e., Mozibil®)+GCSF-dual mobilized peripheral blood obtained from healthy human donors were purchased from a commercial vendor. LT-HSPCs were maintained in culture media comprised of the reagents shown in Table 4 and were incubated at 37° C., 5% carbon dioxide, 4% oxygen. […] 2×10^5 cells were edited with 3 g Cas9 and 3 g gRNA. The target gene sequence (including target sequence with PAM), R02 spacer sequence, and R02 sgRNA sequence are identified in Table 3.
The cells were transfected with a dsDNA homology donor encoding GFP under a SFFV promoter (SEQ ID NO: 60) that was delivered by AAV (SEQ ID NO: 56). […] The HDR efficiency was determined by measuring the level of GFP fluorescence in the cells following electroporation. To determine the effect of 53BP1 inhibition on HDR efficiency, the 53BP1 inhibitor i53 was introduced as an mRNA-encoded protein to the cells during electroporation with Cas9/gRNA RNP and AAV DNA that serves as a donor for homology directed repair.
The effect of 53BP1 inhibition on HDR efficiency was compared to other mRNA-encoded proteins that inhibit the NHEJ pathway. These included the proteins CYREN1 and CYREN2 that inhibit Ku70/80, a heterodimer that binds DNA blunt ends to prevent processing of 3′ single-stranded DNA tails necessary for HDR repair. Cells were electroporated with RNP, an AAV-GFP homology donor and mRNA encoding either i53 (mRNA ORF shown in SEQ ID NO: 69), CYREN1, or CYREN2.
The effect of treatment with i53 and Nu7441 was compared for improving efficiency of HDR repair of the HBB locus. Cells were treated with different doses of Nu7441 or with mRNA encoding i53 (ORF shown by SEQ ID NO: 69).

HBB locus = assay: HDR (E7V) editing in mouse bone marrow 16 weeks post-administration, NGS; type: in vivo, mice; settings: for levels of gene-editing in the HBB locus in bone marrow: AAV.304, FIG. 26B
Description: Maintenance of gene-editing was evaluated in mouse bone marrow collected at 16 weeks post-administration of LT-HSPCs. Incorporation of a sickle mutation (E7V) in the HBB locus was evaluated in DNA isolated from mouse bone marrow samples using the next generation sequencing assay described in Example 4. Shown in FIG. 19 is a comparison of HDR efficiency for LT-HSPCs edited either with or without i53. LT-HSPCs were electroporated with Cas9/gRNA and treated with AAV. […] LT-HSPCs edited in the presence of i53 had 1.8-fold higher HDR frequency in the bone marrow compared to cells edited with AAV+RNP alone.
Maintenance of gene-editing was evaluated in mouse bone marrow collected at 16 weeks post-administration of LT-HSPCs. Incorporation of a sickle mutation (E7V) in the HBB locus was evaluated in DNA isolated from mouse bone marrow samples using the next generation sequencing assay described in Example 4. […] LT-HSPCs were electroporated with Cas9/gRNA and treated with AAV prior to electroporation or following electroporation. Incorporation of the gene-edit in bone marrow samples was similar for LT-HSPCs edited with RNP and AAV given either pre-EP or post-EP. Additionally, incorporation of the gene edit in the HBB locus by HDR was compared for LT-HSPCs edited in the presence of i53 or Nu7441 (FIG. 26B).

[3] = test system: HBB locus in CD34-expressing LT-HSPCs; assay: HDR incorporation of sickle (E7V) edit at HBB locus in vitro, NGS assay; type: cell-based, human; settings: for incorporation of the E7V gene edit: 1 μg mRNA encoding i53
Description: The cells were electroporated with 1 g mRNA encoding i53.

cKit mice [4] = assay: Engraftment (percent chimerism) of edited human LT-HSPCs in irradiated mice; type: in vivo; settings: for chimerism in bone marrow: FIG. 24B
Description: The cells were administered by intravenous injection to cKit mice at 2 days following electroporation. Recipient mice were treated with sublethal irradiation (100 cGy) at 1 day prior to administration of LT-HSPCs to eliminate hematopoietic cells in the bone marrow and enable engraftment of the donor cells. Animals were evaluated for presence of human hematopoietic cells in peripheral blood at 8 and 16 weeks following LT-HSPC administration. The bone marrow was also evaluated for engraftment and maintenance of the HBB gene-edit at 16 weeks following LT-HSPC administration.
as §1
Human LT-HSPCs were administered to mice following electroporation with Cas9/gRNA and AAV encoding a sickle cell mutation (E7V) as shown in FIG. 21. LT-HSPCs were mobilized from healthy donors using plerixafor. LT-HSPCs were gene-edited following 2 days in culture. […] 1×10^6 cells were edited with 20 g Cas9 and 20 g gRNA.
A dose of 0.5×10^6 cells was administered by intravenous injection to cKit mice at 2 days following electroporation. Recipient mice were treated with sublethal irradiation (100 cGy) at 1 day prior to administration of LT-HSPCs to eliminate hematopoietic cells in the bone marrow and enable engraftment of the donor cells. Animals were evaluated for presence of human hematopoietic cells in peripheral blood at 8 and 16 weeks following LT-HSPC administration. The bone marrow was also evaluated for engraftment and maintenance of the HBB gene-edit at 16 weeks following LT-HSPC administration.

For `O=c1cc(N2CCOCC2)oc2c(-c3cccc4c3sc3ccccc34)cccc12` [Nu7441], the “lineage of human leukocytes in bone marrow” value (cKit mice [1]; 16 weeks, compared to treatment with i53, FIG. 25) was “greater proportion of CD34-expressing cells and myeloid cells”, the HDR efficiency [2] was “comparable increase in HDR efficiency” and the “levels of gene-editing in the HBB locus in bone marrow” value (HBB locus) was “comparable to AAV+RNP alone”. The “HDR efficiency over RNP+AAV alone” value ([3]; 5 μM Nu7441, pre-EP AAV.304, FIG. 22B) was “no improvement of HDR efficiency”, the “chimerism in blood, fold increase over RNP+AAV alone” value (cKit mice [4]; 8 and 16 weeks, 5 μM Nu7441, FIG. 23B) was 2.5 fold and the “chimerism in bone marrow” value (cKit mice [4]; 16 weeks, AAV.304) was “higher than RNP+AAV alone”. The chimerism in blood (cKit mice [4]; both 8 and 16 weeks, 5 μM Nu7441, AAV.304, FIG. 23B) was “approximately 25%”.
“i53: polypeptide inhibitor of 53BP1 (SEQ ID NO: 70), delivered as mRNA (ORF SEQ ID NO: 69)” was tested, and the “lineage distribution of engrafted cells” value (cKit mice [1]; bone marrow 16 weeks, edited vs un-edited LT-HSPCs, FIG. 18B) was “no gross changes in lineage distribution”, the HDR efficiency [2] was “comparable increase in HDR efficiency” and the “HDR efficiency vs RNP+AAV-only” value ([2]; i53 mRNA 0.5, 1, 2 g (FIG. 6A) or 0.3 g, 1 g (FIG. 6B), CYREN1 or CYREN2 mRNA, any dose of XL413 (data not shown)) was “improved HDR efficiency; also recorded: increased HDR efficiency”. The “HDR efficiency, fold increase over RNP+AAV-only” value ([2]; mRNA encoding i53, AAV GFP donor 5,000 MOI, FIG. 6A) was “approximately 1.3 fold”, the “levels of gene-editing in the HBB locus in bone marrow” value (HBB locus) was “substantially higher than AAV+RNP alone” and the “HDR frequency in bone marrow, fold higher than AAV+RNP alone” value (HBB locus; AAV.307, FIG. 19) was 1.8 fold. The “incorporation of the gene edit by HDR in bone marrow” value (HBB locus; AAV.307, i53, FIG. 19) was 65%, the “incorporation of the E7V gene edit” value ([3]; pre-EP AAV.304, FIG. 22B) was 58% and the “incorporation of the E7V gene edit” value ([3]; AAV.307 + Cas9/R02 RNP, FIG. 10) was 68%. For the same compound, the “cells incorporating the sickle cell gene-edit” value ([3]; LT-HSPCs mobilized by Mozobil alone, i53, FIG. 12B) was “approximately 70%”, the “HDR efficiency, fold increase over RNP+AAV alone” value ([3]; LT-HSPCs mobilized by Mozobil+GCSF, FIG. 12A) was “approximately 1.5 fold” and the “incorporation of the sickle cell gene-edit by HDR” value ([3]; LT-HSPCs mobilized by Mozobil+GCSF, i53, FIG. 12A) was “approximately 60%”. For the same compound, the “percent chimerism in bone marrow” value (cKit mice [4]; 16 weeks, 0.25×10^6 LT-HSPCs, AAV.307, FIG. 16) was “no further decrease in chimerism”, the “chimerism in bone marrow” value (cKit mice [4]; 16 weeks, AAV.304) was “comparable to RNP+AAV alone” and the “levels of chimerism in blood” value (cKit mice [4]; blood 8 and 16 weeks, 0.5×10^6 cells, AAV.304, FIG. 23B) was “comparable to RNP+AAV alone”.
